Data set [1] has as its system U87-MG cells. Kind of data set: In vitro cytotoxicity assay (CCK-8) in U87-MG cells. The note with it: U87-MG (high αvβ3 integrin), 48 h incubation, fold of free DM1 activity. As for the experimental part:
(§1) Cells were plated in 96-well microplates at a density of 5×10^4 cells/well for 24 h for attachment, 90 μl of DMEM with 10% FBS and 100 U/mL P/Swas added to each well. PDCs 1-6 were first dissolved in DMSO respectively, at a concentration of 10 mM, followed by serial dilution in culture medium to achieve different concentrations as specified. For U87-MG cells, the concentration of compounds administered ranged from 1.37 to 27000 nM. While for HEK-293T cells, the concentration of compounds administered ranged from 0.03 to 1000 nM. The cells treated with the compounds were then incubated for 48 h. 10 μl of CCK-8 solution was then added to each well and incubated for 30 min. Absorbance was acquired at 450 nm using a spectrophotometer (Synergy HTX, Biotek). Three experiments were performed separately in triplicates and the data was processed using the GraphPad Prism (GraphPad Software, La Jolla, CA).
(§2) Next, the biological activities of these conjugates were evaluated.
Then, the in vitro antitumor efficacy of PDCs 1-6 was examined by CCK-8 assay (FIG. 5B). The IC50 of free DM1 and its conjugates were compared internally within the same cell line, to determine the potency of the six compounds.

Data set [2] relates to HEK-293T cells. Description: In vitro cytotoxicity assay (CCK-8) in HEK-293T cells. To be noted: for cytotoxicity in words (ranking among the six compounds): HEK-293T, CCK-8, PDCs 1-6. As for the experimental part:
as §1, §2
The peptide-drug conjugates were tested on the negative control cell line.

The nature of data set [3]: Stability test of conjugates (checked by LCMS). The class given is physicochemical. The note with it: 5% ACN in H2O or 5% ACN in PBS pH 7.4, 0.5 mM, room temperature or 37° C., LCMS after 24 h and 48 h. As for the experimental part:
FIGS. 5A-5C are line graphs of stability test and biological evaluations of PDC 1-6. […] The compound was checked by LCMS after 24 h and 48 h.

For data set [4], the target named is αvβ3 integrin (Homo sapiens, UniProt P05106+P06756). The note with it: Kapp, et al., Sci. Rep. 2017; cited from earlier work.
In data set [5] the target is integrin αvβ3 (UniProt P06756 31-1048; P05106 27-788). Description: cell-based or functional assay.

Non-standard residues stand in square brackets, D forms with d. Pen = CC(C)(S)[C@H](N)C(=O)O

Sequence of αvβ3 integrin (P06756 31-1048): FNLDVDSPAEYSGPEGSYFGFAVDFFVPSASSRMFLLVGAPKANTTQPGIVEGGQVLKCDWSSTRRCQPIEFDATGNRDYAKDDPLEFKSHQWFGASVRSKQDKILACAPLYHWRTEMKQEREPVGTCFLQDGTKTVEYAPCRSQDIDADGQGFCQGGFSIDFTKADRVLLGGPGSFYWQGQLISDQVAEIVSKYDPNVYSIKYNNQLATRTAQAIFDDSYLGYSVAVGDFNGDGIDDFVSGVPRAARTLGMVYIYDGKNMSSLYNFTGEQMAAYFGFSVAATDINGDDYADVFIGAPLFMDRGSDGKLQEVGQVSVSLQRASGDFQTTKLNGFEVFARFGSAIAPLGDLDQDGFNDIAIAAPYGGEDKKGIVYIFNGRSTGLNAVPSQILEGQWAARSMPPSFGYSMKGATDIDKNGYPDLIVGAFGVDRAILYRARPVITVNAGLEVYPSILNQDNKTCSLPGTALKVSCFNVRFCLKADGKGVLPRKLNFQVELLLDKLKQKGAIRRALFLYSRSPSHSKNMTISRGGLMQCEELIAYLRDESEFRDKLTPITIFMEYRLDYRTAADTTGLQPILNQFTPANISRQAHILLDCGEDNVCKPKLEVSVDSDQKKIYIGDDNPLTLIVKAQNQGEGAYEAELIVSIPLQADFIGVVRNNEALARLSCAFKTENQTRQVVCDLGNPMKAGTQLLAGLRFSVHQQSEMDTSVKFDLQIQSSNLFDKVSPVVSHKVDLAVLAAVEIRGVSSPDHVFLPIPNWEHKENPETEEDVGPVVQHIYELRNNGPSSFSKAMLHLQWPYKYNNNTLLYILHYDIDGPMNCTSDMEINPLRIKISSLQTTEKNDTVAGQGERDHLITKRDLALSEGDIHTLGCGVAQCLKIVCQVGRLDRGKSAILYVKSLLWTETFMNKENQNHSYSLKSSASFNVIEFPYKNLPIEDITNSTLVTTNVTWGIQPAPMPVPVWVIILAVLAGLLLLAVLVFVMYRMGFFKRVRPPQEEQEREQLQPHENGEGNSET
Sequence of αvβ3 integrin (P05106 27-788): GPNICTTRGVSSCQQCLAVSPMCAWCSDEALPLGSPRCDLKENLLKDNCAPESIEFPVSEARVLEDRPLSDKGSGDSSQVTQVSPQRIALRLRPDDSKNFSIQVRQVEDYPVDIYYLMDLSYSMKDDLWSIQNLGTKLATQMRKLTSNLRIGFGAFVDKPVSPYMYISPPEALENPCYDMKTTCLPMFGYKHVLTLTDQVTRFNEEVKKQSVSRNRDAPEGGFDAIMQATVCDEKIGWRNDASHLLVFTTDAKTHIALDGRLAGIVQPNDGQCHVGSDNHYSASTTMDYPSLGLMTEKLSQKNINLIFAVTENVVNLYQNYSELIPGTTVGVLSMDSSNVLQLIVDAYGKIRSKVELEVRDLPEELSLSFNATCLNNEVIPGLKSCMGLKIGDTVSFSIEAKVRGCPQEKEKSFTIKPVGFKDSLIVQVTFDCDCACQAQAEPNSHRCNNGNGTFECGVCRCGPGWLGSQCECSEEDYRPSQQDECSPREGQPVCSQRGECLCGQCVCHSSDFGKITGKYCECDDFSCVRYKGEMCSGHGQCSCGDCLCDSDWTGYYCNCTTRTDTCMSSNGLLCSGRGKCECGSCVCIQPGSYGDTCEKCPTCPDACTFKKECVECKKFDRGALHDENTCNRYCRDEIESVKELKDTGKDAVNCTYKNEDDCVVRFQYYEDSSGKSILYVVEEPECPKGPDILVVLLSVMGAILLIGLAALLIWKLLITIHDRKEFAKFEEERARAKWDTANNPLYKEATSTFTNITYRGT
Sequence of integrin αvβ3 (P06756 31-1048, chain 1 of 2): as the sequence (P06756 31-1048) above
Sequence of integrin αvβ3 (P05106 27-788, chain 2 of 2): as the sequence (P05106 27-788) above

`COc1cc2cc(c1Cl)N(C)C(=O)C[C@H](OC(=O)[C@H](C)N(C)C(=O)CCSc1c3ccccc3cn1CCCC[C@@H]1NC(=O)[C@@H](Cc3ccccc3)NC(=O)[C@H](CC(=O)O)NC(=O)CNC(=O)[C@H](CCCNC(=N)N)NC1=O)[C@]1(C)O[C@H]1[C@H](C)[C@@H]1C[C@@](O)(NC(=O)O1)[C@H](OC)/C=C/C=C(\C)C2` [PDC-1, OPA-c [RGDfK]-DM1]: the “cytotoxicity compared to free DM1 (IC50 compared within the same cell line)” value (“cytotoxicity compared to free DM1” below) in data set [1] was 0.85 fold. `COc1cc2cc(c1Cl)N(C)C(=O)C[C@H](OC(=O)[C@H](C)N(C)C(=O)CCSSCCn1cc3ccccc3c1SC(C)(C)[C@@H]1NC(=O)[C@@H](Cc3ccccc3)NC(=O)[C@H](CC(=O)O)NC(=O)CNC(=O)[C@H](CCCNC(=N)N)NC1=O)[C@]1(C)O[C@H]1[C@H](C)[C@@H]1C[C@@](O)(NC(=O)O1)[C@H](OC)/C=C/C=C(\C)C2` [PDC-3]: the “cytotoxicity compared to free DM1” value in data set [1] is 5.95 fold. In addition, the “cytotoxicity as fold of the activity of DM1” value in data set [2] (HEK-293T (low αvβ3 integrin, negative control), 48 h incubation, CCK-8) is listed as 0.31 fold. In data set [2], the “cytotoxicity in words (ranking among the six compounds)” value is listed as “relatively better activity among the six compounds”. Also, in data set [3], the “stability compared to PDC-1 (FIG. 5A)” value is given as “improved stability”. For `COc1cc2cc(c1Cl)N(C)C(=O)C[C@H](OC(=O)[C@H](C)N(C)C(=O)CCSc1c3ccccc3cn1CCCC[C@@H]1NC(=O)[C@@H](Cc3ccccc3)NC(=O)[C@H](CCC(=O)O)NC(=O)CNC(=O)[C@H](CCCNC(=N)N)NC1=O)[C@]1(C)O[C@H]1[C@H](C)[C@@H]1C[C@@](O)(NC(=O)O1)[C@H](OC)/C=C/C=C(\C)C2` [PDC-5], in data set [1], the “cytotoxicity compared to free DM1” value was determined as 0.49 fold. On to `COc1cc2cc(c1Cl)N(C)C(=O)C[C@H](OC(=O)[C@H](C)N(C)C(=O)CCSSCCn1cc3ccccc3c1SC(C)(C)[C@@H]1NC(=O)[C@@H](Cc3ccccc3)NC(=O)[C@H](CCC(=O)O)NC(=O)CNC(=O)[C@H](CCCNC(=N)N)NC1=O)[C@]1(C)O[C@H]1[C@H](C)[C@@H]1C[C@@](O)(NC(=O)O1)[C@H](OC)/C=C/C=C(\C)C2` [PDC-6], for which the “cytotoxicity compared to free DM1” value in data set [1] came to 0.48 fold. In addition, the “cytotoxicity in words (ranking among the six compounds)” value in data set [2] is listed as “relatively better activity among the six compounds”. For c [c [RGDfK]], the “increase of binding affinity compared to the linear RGD tripeptide” value in data set [4] was 39 fold. c [c [RGDfV]]: the “increase of binding affinity compared to the linear RGD tripeptide” value in data set [4] is on record as 58 fold. For cyclo(RGD[dF]K(Pen)) (not fully specified) [PDC-4], in data set [5], the “cytotoxicity (CCK-8 assay) in U87-MG cells, fold against free DM1” value came out at 1.29 fold and the “cytotoxicity (CCK-8 assay) in the αvβ3-negative cell line HEK-293T, fold of the activity of DM1” value turned out to be 0.16 fold.

Values taken from patent publication US20260098054A1, “COMPOSITIONS AND METHODS FOR CONSTRUCTING CONJUGATES” (priority 2022, published 2026).
